Results as given in patent publication US11382889B2, “NRF2 activators for the prevention and/or treatment of axonal degeneration” (priority 2018, dated 2022).
Structures can show the parent of a compound that is named as a salt.

Columns and labels:
NRF2 = NRF2 protein levels and NRF2-target gene expression in Abcd1− mice spinal cord after dietary DMF; assay type: in vivo; details: 12 months of age, DMF 100 mg/kg/day in chow for 4 months
Description: a) NRF2 protein levels in WT (n=6), Abcd1^− (n=6) and DMF-treated Abcd1^− mice (Abcd1^−+DMF, n=6) mice spinal cord at 12 months of age. Protein levels were normalized relative to γ-TUB and quantification is depicted as fold change to WT (Wild type) mice. b) NRF2-dependent antioxidative genes (Hmox1, Nqo1 and Gst α 3) expression in WT (n=8), Abcd1^− (n=8) and Abcd1^−+DMF (n=8) mice spinal cord at 12 months of age. Gene expression levels were normalized relative to Rplp0. Quantification is represented as fold change to WT mice. c) Mitochondrial DNA (mtDNA) levels in WT (n=8), Abcd1^− (n=8) and Abcd1^−+DMF (n=8) mice spinal cord at 12 months of age. mtDNA content was measured by quantitative RT-PCR and expressed as the ratio of mtDNA (CytB levels) to nuclear DNA (nDNA, Cebpa levels). Quantification is depicted as fold change to WT mice. d) Sirt1, Pgc-1α, Nrf1 and Tfam expression was measured by quantitative RT-PCR in WT (n=8), Abcd1^− (n=8) and Abcd1^−+DMF (n=8) mice spinal cord at 12 months of age. Gene expression levels were normalized relative to Rplp0. Quantification is depicted as fold change to WT mice. e) ATP levels in WT (n=8), Abcd1^− (n=8) and Abcd1^−+DMF (n=8) mice spinal cord at 12 months of age. Quantification is represented as fold change to WT mice. […]

[1] = test system: Abcd1−/Abcd2−/− (DKO) mice; test: Bar cross and treadmill tests in Abcd1−/Abcd2−/− (DKO) mice; assay type: in vivo; details: 18 months of age, end of treatment, DMF 100 mg/kg in chow for 6 months
Description: a-x) Immunohistological analysis of axonal pathologies performed in 18-month-old WT, Abcd1^−/Abcd2^−/− (DKO) and Abcd1^−/Abcd2^−/− mice treated with DMF (DKO+DMF) (n=5 per genotype and condition). Spinal cord immunohistological sections were processed for (a-c) Iba1, (d-f) GFAP, (g-i) Synaptophysin, (j-l) APP, (m-o) Sudan black, (p-r) 8-oxo-dG, (s-u) CYT C and (v-x) SMI-32 immunostaining. Representative images for (a, d, g, j, m, p, s, v) WT, (b, e, h, k, n, q, t, w) DKO, and (c, f, i, l, o, r, u, x) DKO+DMF are shown. Scale bars=25 μm (a-r) and […] (s-x). y) Quantification of synaptophysin and APP accumulations in spinal cord immunohistological sections of WT (n=5), DKO (n=5) and DKO+DMF (n=5) mice. z) Bar-cross and treadmill tests performed on 18-month-old WT (n=14), Abcd1^−//Abcd2^−/− (DKO) (n=16) and Abcd1^−//Abcd2^−/− mice treated with DMF (DKO+DMF) (n=14). […] Values are expressed as mean±SD (*p<0.05, **p<0.01, ***p<0.001 after one-way ANOVA test followed by Tukey's post hoc test; p<0.05, p<0.001 after non-parametric Kruskal-Wallis' test).
To address the therapeutic effect of DMF, we assessed the clinical signs of AMN in Abcd1^−/Abcd2^−/− (DKO) mice, which display increased VLCFA accumulation in the spinal cord, higher levels of oxidative damage to proteins, and a more severe AMN-like pathology with an earlier onset at 12 months of age. […]

COC(=O)/C=C/C(=O)OC [DMF, dimethyl fumarate]
NRF2 protein levels (NRF2): induced
NRF2 target genes expression (Hmox1, Nqo1, Gstα3) (NRF2): induced
bar cross test (number of slips and time to cross the bar) [1]: behaved similar to WT mice
treadmill test (number and duration of shocks) [1]: improved the performance of DKO mice in this test, up to the level of WT mice
